Usually IC50 stands for the concentration at which inhibition is half-maximal.

The target of one series is T1, hBChE (Homo sapiens, UniProt P06276, N45Q/N483Q/N509Q/N514Q).
T1 construct: made in house
Briefly: Recombinant hBChE inhibition, Ellman's buffer. It is filed as biochemical. As to the method: (§1) Recombinant hAChE and hBChE were produced and purified as previously described. Test compounds were dissolved in methanol 100 % to prepare stock solutions at 40 mM and subsequently diluted in water to reach the desired concentrations. Recombinant hAChE and hBChE activities were measured in presence of appropriate compound concentrations by spectrophotometry at 412 nm and 25 °C in a 1 mL cuvette containing Ellman’s buffer (0.5 mM DTNB, 0.1% BSA, 0.1 M phosphate, pH 7.4). Measurements were performed at least in duplicate for each tested concentration and final methanol concentrations were kept below 5%.
In general terms: DTNB colorimetry detects thiols as they appear.

The target of series [1] is T2, eeAChE (electric eel acetylcholinesterase) (Electrophorus electricus, UniProt O42275).
T2 construct: Eel acetylcholinesterase (eeAChE, E.C. 3.1.1.7, from Electrophorus electricus); purchased Sigma Aldrich
T2 sequence (O42275 24-633): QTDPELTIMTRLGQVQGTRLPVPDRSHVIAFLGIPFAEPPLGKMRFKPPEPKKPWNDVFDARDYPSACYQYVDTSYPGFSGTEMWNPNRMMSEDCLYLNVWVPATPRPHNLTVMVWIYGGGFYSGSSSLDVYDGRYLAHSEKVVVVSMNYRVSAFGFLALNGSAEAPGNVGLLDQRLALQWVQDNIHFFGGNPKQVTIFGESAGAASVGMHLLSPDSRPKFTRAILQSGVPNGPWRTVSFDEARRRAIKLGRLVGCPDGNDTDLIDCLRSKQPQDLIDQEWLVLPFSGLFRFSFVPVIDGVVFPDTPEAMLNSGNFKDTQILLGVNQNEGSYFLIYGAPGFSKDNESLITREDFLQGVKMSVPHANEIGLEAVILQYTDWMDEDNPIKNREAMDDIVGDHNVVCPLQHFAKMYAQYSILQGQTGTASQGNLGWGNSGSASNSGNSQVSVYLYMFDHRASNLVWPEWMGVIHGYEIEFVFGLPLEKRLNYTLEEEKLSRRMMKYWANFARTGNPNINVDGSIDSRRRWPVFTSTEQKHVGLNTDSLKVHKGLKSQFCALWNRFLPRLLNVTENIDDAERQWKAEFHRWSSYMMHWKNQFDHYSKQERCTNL
As to the kind of experiment: eeAChE inhibition, Ellman's method. The format is biochemical.
Method: The eeAChE and eqBChE inhibitory activities of the compounds under study were determined following the Ellman’s method [32, 33]
Substrate solutions (ATCI or BCTI) were prepared in deionized water (conductivity ˂ 0.1 µS.cm-
Evaluation of eel acetylcholinesterase and equine butyrylcholinesterase inhibitory
The eeAChE and eqBChE inhibitory activities of the compounds under study were evaluated following the Ellman’s method [1, 2]. Briefly, a mixture containing sodium phosphate buffer, enzyme (final concentration: eeAChE 0.05 U/mL and eeBChE 0.05 U/mL), DTNB (final concentration: 400 µM) and the test compounds/reference inhibitors were preincubated for 5 minutes at 30 °C in a 96-well microplate (BRANDplates, pureGradeTM, BRAND GMBH, Wertheim, Germany). In control experiments, sodium phosphate buffer was used instead of the
ºC in a microplate reader (BioTek Synergy HT from BioTek Instruments, Winooski, VT, USA).
The rates of the substrate enzymatic hydrolysis were determined, normalized and plotted against the respective inhibitor concentration. IC50 values were obtained from the dose-response curves
and were expressed as mean ± standard deviation. IC50 values were determined in at least three
independent experiments, each performed at least in triplicates.

For a further series, the target named is T3, hAChE (Homo sapiens, UniProt P22303).
T3 construct: made in house
T3 sequence (P22303 32-574 limits assumed): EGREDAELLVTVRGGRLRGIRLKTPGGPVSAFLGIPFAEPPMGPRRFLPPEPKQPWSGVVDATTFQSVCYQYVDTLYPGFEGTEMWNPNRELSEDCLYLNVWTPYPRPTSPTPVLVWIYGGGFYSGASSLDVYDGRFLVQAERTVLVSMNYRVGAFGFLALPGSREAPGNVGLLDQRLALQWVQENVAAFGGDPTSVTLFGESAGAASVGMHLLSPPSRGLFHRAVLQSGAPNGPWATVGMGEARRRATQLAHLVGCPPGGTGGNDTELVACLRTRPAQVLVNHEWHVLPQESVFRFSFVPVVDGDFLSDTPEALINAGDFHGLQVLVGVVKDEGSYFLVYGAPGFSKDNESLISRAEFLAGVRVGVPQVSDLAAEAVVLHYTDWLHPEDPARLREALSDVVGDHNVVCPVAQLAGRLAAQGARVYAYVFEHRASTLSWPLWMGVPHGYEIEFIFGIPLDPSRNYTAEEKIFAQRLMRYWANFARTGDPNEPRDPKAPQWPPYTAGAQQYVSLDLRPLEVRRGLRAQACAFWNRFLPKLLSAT
Briefly: Recombinant hAChE inhibition, Ellman's buffer. The format is biochemical. As to the method:
as §1

Series [2] in a line: Differential pulse voltammetry (DPV). It is filed as physicochemical. The following applies: pH 7.4, glassy carbon electrode; for Ep (redox potential): first anodic peak. As to the method:
DPV experiments were performed as described in literature (see supplementary information).
1.4. Electrochemical measurements
Voltammetric studies were carried out using an Autolab PGSTAT 12 potentiostat/galvanostat (Metrohm-Autolab, Netherlands) and one compartment glass electrochemical cell. The voltammetric data were acquired at room temperature using a three-electrode system: a glassy carbon working electrode (GCE) (d = 2 mm), a platinum wire counter electrode and an Ag/AgCl saturated KCl reference electrode (Metrohm, Switzerland). The working electrode was polished manually with an aqueous slurry of alumina powder (BDH Chemicals, VWR, USA) on a microcloth pad and rinsed with water before use. A Crison pH-meter with glass electrode was used for the pH measurements (Crison, Barcelona, Spain).
Differential pulse voltammetry (DPV) experiments were performed as described elsewhere. Test solutions were prepared directly in the electrochemical cell, by diluting ethanolic solutions of the compounds under study (10 mM, 100 μL) in the supporting electrolyte (10 mL) to obtain a final concentration of 100 μM. The scan rate used in differential pulse voltammetry (DPV) was 5 mV.s−1.
All reagents used were of analytical grade or of the highest grade available. Neutral red (NR) solution, resazurin, Dulbecco’s Modified Eagle’s Medium (DMEM) with 4.5 g/L glucose, retinoic acid, 12-O-tetradecanoylphorbol-13-acetate (TPA), 2’,7’-dichorofluorescein diacetate (DCFH-DA), Rhodamine 123 (RHO 123) and zosuquidar (ZOS) were obtained from Sigma Aldrich. Reagents used in cell culture such as heat-inactivated fetal bovine serum (FBS), antibiotic (10,000 U/mL penicillin, 10,000 μg/mL streptomycin), MEM Non-Essential Amino Acids solution (100×) (MEM NEAA), Hanks’ balanced salt solution (HBSS) with or without calcium and magnesium (HBSS(+/+) or HBSS (-/-), respectively) and 0.25% trypsin/1 mM ethylenediamine tetraacetic acid (EDTA) were purchased from Gibco Laboratories (Lenexa, KS, USA). Dimethylsulfoxide (DMSO), absolute ethanol, sodium bicarbonate and acetic acid were obtained from Merck (Darmstadt, Germany). Triton™ X-100 detergent solution was acquired from Thermo Fisher Scientific (Waltham, MA, USA).
Human neuroblastoma SH-SY5Y cells were routinely cultured into […] and maintained in DMEM with 4.5 g/L glucose, supplemented with 10 % heat-inactivated FBS (v/v), 1 % MEM NEAA (v/v) and 1% penicillin/streptomycin (v/v). Cells were maintained at 37 °C in a humidified, 5% CO2−95% air atmosphere, and the cell culture medium was changed every 2-3

A further series addresses T4, hMAO-B (Homo sapiens, UniProt P27338).
T4 sequence (P27338 1-520): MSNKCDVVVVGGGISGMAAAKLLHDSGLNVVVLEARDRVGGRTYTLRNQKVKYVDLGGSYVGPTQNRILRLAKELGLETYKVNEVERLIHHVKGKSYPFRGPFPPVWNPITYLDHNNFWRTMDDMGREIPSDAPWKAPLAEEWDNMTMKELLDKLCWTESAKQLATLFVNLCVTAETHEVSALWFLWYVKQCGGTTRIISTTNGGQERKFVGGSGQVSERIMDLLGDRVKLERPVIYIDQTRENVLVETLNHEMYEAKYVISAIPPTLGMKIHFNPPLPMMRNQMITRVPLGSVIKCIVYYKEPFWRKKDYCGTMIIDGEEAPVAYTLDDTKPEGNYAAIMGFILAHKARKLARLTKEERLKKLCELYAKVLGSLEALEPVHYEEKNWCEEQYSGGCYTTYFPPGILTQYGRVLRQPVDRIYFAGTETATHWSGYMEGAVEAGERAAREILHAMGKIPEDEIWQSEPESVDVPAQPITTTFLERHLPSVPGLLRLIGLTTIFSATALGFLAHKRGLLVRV
Briefly: biochemical. More on the design: purchased Sigma Aldrich; host or cells: insect cells (BTI-TN-5B1-4), baculovirus.

SMILES strings stand for the structures.

T1 sequence (P06276 29-557 N45Q/N483Q/N509Q/N514Q limits assumed): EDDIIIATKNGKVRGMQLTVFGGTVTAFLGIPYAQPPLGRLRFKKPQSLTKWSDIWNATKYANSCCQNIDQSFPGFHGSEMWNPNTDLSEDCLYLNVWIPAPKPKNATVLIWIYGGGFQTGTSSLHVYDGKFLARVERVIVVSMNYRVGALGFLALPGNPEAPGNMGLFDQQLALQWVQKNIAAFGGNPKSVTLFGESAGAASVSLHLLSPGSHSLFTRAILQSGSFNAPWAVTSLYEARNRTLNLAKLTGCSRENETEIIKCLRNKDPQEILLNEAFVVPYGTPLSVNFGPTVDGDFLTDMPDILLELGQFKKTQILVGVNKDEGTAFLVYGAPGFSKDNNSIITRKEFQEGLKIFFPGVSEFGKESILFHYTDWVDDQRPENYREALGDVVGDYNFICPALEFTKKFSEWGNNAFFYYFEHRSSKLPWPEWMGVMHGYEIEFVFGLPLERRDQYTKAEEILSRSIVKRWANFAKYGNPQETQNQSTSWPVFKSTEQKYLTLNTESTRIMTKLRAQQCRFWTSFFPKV
Method for hMAO-B: The inhibitory activity of lipophilic TPP^+ cations on hMAO-A and hMAO-B was studied using an experimental protocol described elsewhere [29, 40]
Evaluation of human monoamine oxidase (hMAO) inhibitory activity The human monoamine oxidase (hMAO) inhibitory outline was assessed in microsomal MAO isoforms prepared from insect cells (BTI-TN-5B1-4) infected with recombinant baculovirus containing cDNA inserts for hMAO-A or hMAO-B an d by measuring the enzymatic conversion rates of kynuramine into 4-hydroxyquinoline. The appropriate amounts of hMAO-A and hMAO-B were adjusted to obtain, in our experimental conditions, the same maximum
All assays were performed in sodium phosphate buffer solution 50 mM pH 7.4.
The compounds under study and reference inhibitors were pre-incubated at 37 °C for 10
concentration: 2×Km) in 96-well microplates (BRANDplates, pureGradeTM, BRAND GMBH, Wertheim, Germany). Then, the reaction was started with the addition of hMAO-A or hMAO-B.
Initial velocities were determined spectrophotometrically in a microplate reader (BioTek Synergy HT from BioTek Instruments, Winooski, VT, USA) at 37 °C by measuring the formation of 4-
The initial velocities, obtained from the linear phase of product formation, were normalized and plotted against the respective inhibitor concentration. IC50 values were obtained from dose-response curves and were expressed as mean ± standard deviation. IC50 values were determined from at least three independent experiments, each performed in triplicate.

For the compound `O=C(/C=C/C=C/c1ccc2c(c1)OCO2)NCCCC[P+](c1ccccc1)(c1ccccc1)c1ccccc1.[Br-]` [Compound 2, (4-((2E,4E)-5-(Benzo[d][1,3]dioxol-5-yl)penta-2,4-dienamido)butyl)triphenylphosphonium bromide], the IC50 on hBChE was found to be 0.2 ± 0.04 µM; in series [1], 6.39 ± 0.28 µM; on hAChE it was 11 ± 1 µM; against hMAO-B, 12.4 ± 1.9 µM. At hBChE, the “SI (2): hBChE selectivity index = IC50(hAChE)/IC50(hBChE)” value is recorded as 55. Moreover, the “Ep (redox potential), second overlapped anodic peak” value in series [2] is 1070 mV. For the same compound, the “Ep (redox potential)” value in series [2] turned out to be 942 mV. Further, on hMAO-B, the “SI (3): hMAO-B selectivity index = IC50 (hMAO-A)/IC50 (hMAO-B)” value (“SI (3): hMAO-B selectivity index = IC50” below) came to 0.07.

Consider `O=C(/C=C/C=C/c1ccc2c(c1)OCO2)NCCCCCC[P+](c1ccccc1)(c1ccccc1)c1ccccc1.[Br-]` [Compound 3, (6-((2E,4E)-5-(Benzo[d][1,3]dioxol-5-yl)penta-2,4-dienamido)hexyl)triphenylphosphonium bromide], for which, on hBChE, the IC50 amounted to 3 ± 0.4 µM and the “SI (2): hBChE selectivity index = IC50(hAChE)/IC50(hBChE)” value came to 0.67. Further, in series [1], the IC50 worked out at 5.74 ± 0.32 µM. The IC50 at hAChE amounted to 2 ± 0.2 µM. In addition, in series [2], the “Ep (redox potential), second overlapped anodic peak” value came to 1083 mV and the “Ep (redox potential)” value turned out to be 931 mV. In addition, at hMAO-B, the half-maximal inhibitory concentration (IC50) is 4.64 ± 0.29 µM and the “SI (3): hMAO-B selectivity index = IC50” value is 0.26.

On to `O=C(/C=C/C=C/c1ccc(O)c(O)c1)NCCCC[P+](c1ccccc1)(c1ccccc1)c1ccccc1.[Br-]` [Compound 4, (4-((2E,4E)-5-(3,4-Dihydroxyphenyl)penta-2,4-dienamido)butyl)triphenylphosphonium bromide], for which the IC50 was found to be 3 ± 0.2 µM on hBChE, 2.23 ± 0.12 µM in series [1], 22 ± 2 µM on hAChE and 13.5 ± 1.1 µM on hMAO-B. Also, the “SI (2): hBChE selectivity index = IC50(hAChE)/IC50(hBChE)” value on hBChE turned out to be 7.3. Also, the “Ep (redox potential)” value in series [2] was 125 mV. On hMAO-B, the “SI (3): hMAO-B selectivity index = IC50” value was determined as 0.38.

As for `O=C(/C=C/C=C/c1ccc(O)c(O)c1)NCCCCCC[P+](c1ccccc1)(c1ccccc1)c1ccccc1.[Br-]` [Compound 5, (6-((2E,4E)-5-(3,4-Dihydroxyphenyl)penta-2,4-dienamido)hexyl)triphenylphosphonium bromide], the IC50 is 23 ± 2 µM at hBChE, 2.14 ± 0.06 µM in series [1], 9 ± 0.5 µM on hAChE and 10.9 ± 0.7 µM on hMAO-B. The “SI (2): hBChE selectivity index = IC50(hAChE)/IC50(hBChE)” value on hBChE came out at 0.39. Moreover, the “Ep (redox potential)” value in series [2] is given as 144 mV. On hMAO-B, the “SI (3): hMAO-B selectivity index = IC50” value was found to be 0.20.
